Test results: the NIST ThermoML archive (doi:10.1021/je0501639)
Numbers after ± are expanded uncertainties.

Tests used:
[1] = xn = mol fraction of the nth substance listed; conditions: 100.8 kPa, Liquid
[2] = refractive index (Na D-line) (dimensionless); xn = mol fraction of the nth substance listed; conditions: 100.8 kPa, Liquid, Standard Abbe refractometry

CC(C)CC(C)(C)C [2,2,4-trimethylpentane] + CCO
Conditions	mass density, 298.15 K [kg/m3]	mass density, 308.15 K [kg/m3]	mass density, 318.15 K [kg/m3]	refractive index, 298.15 K	refractive index, 308.15 K	refractive index, 318.15 K	viscosity, 298.15 K [mPa·s]	viscosity, 308.15 K [mPa·s]	viscosity, 318.15 K [mPa·s]
[1], x2 = 0	687.89 ± 0.32	679.55 ± 0.33	671.1 ± 0.34	–	–	–	0.474 ± 0.014	0.425 ± 0.014	0.38 ± 0.013
[1], x2 = 0.05	688.94 ± 0.32	680.44 ± 0.33	671.89 ± 0.33	–	–	–	0.472 ± 0.014	0.421 ± 0.013	0.376 ± 0.013
[1], x2 = 0.1	690.43 ± 0.32	681.85 ± 0.33	673.2 ± 0.33	–	–	–	0.47 ± 0.014	0.419 ± 0.013	0.377 ± 0.013
[1], x2 = 0.15	692.16 ± 0.32	683.55 ± 0.33	674.81 ± 0.33	–	–	–	0.476 ± 0.014	0.423 ± 0.014	0.378 ± 0.013
[1], x2 = 0.2	694.08 ± 0.32	685.46 ± 0.32	676.67 ± 0.33	–	–	–	0.485 ± 0.014	0.428 ± 0.014	0.381 ± 0.013
[1], x2 = 0.25	696.22 ± 0.32	687.59 ± 0.32	678.74 ± 0.33	–	–	–	0.494 ± 0.014	0.435 ± 0.014	0.387 ± 0.013
[1], x2 = 0.3	698.58 ± 0.31	689.91 ± 0.32	681.05 ± 0.33	–	–	–	0.506 ± 0.014	0.443 ± 0.014	0.392 ± 0.013
[1], x2 = 0.35	701.19 ± 0.31	692.48 ± 0.32	683.6 ± 0.32	–	–	–	0.52 ± 0.014	0.453 ± 0.014	0.401 ± 0.013
[1], x2 = 0.4	704.04 ± 0.31	695.33 ± 0.31	686.41 ± 0.32	–	–	–	0.538 ± 0.014	0.469 ± 0.014	0.413 ± 0.013
[1], x2 = 0.45	707.19 ± 0.31	698.47 ± 0.31	689.53 ± 0.32	–	–	–	0.558 ± 0.014	0.487 ± 0.014	0.426 ± 0.014
[1], x2 = 0.5	710.69 ± 0.3	701.95 ± 0.31	693 ± 0.32	–	–	–	0.583 ± 0.015	0.507 ± 0.014	0.443 ± 0.014
[1], x2 = 0.55	714.59 ± 0.3	705.81 ± 0.31	696.87 ± 0.31	–	–	–	0.611 ± 0.015	0.53 ± 0.014	0.461 ± 0.014
[1], x2 = 0.6	718.95 ± 0.3	710.14 ± 0.3	701.18 ± 0.31	–	–	–	0.642 ± 0.015	0.555 ± 0.014	0.483 ± 0.014
[1], x2 = 0.65	723.82 ± 0.29	714.99 ± 0.3	706 ± 0.3	–	–	–	0.675 ± 0.015	0.583 ± 0.015	0.505 ± 0.014
[1], x2 = 0.7	729.34 ± 0.29	720.46 ± 0.29	711.43 ± 0.3	–	–	–	0.71 ± 0.016	0.614 ± 0.015	0.528 ± 0.014
[1], x2 = 0.75	735.56 ± 0.28	726.64 ± 0.29	717.6 ± 0.3	–	–	–	0.75 ± 0.016	0.647 ± 0.015	0.557 ± 0.014
[1], x2 = 0.8	742.67 ± 0.28	733.71 ± 0.28	724.66 ± 0.29	–	–	–	0.797 ± 0.017	0.685 ± 0.016	0.589 ± 0.015
[1], x2 = 0.85	750.87 ± 0.27	741.88 ± 0.28	732.81 ± 0.29	–	–	–	0.853 ± 0.017	0.731 ± 0.016	0.626 ± 0.015
[1], x2 = 0.9	760.47 ± 0.27	751.45 ± 0.27	742.33 ± 0.28	–	–	–	0.916 ± 0.018	0.784 ± 0.017	0.668 ± 0.015
[1], x2 = 0.95	771.78 ± 0.26	762.83 ± 0.27	753.76 ± 0.27	–	–	–	0.989 ± 0.019	0.843 ± 0.017	0.712 ± 0.016
[2], x2 = 0	–	–	–	1.38898 ± 0.00032	1.38398 ± 0.00032	1.37898 ± 0.00032	–	–	–
[2], x2 = 0.05	–	–	–	1.38825 ± 0.00032	1.38325 ± 0.00032	1.37815 ± 0.00032	–	–	–
[2], x2 = 0.1	–	–	–	1.38749 ± 0.00032	1.38247 ± 0.00032	1.37738 ± 0.00032	–	–	–
[2], x2 = 0.15	–	–	–	1.38668 ± 0.00032	1.38169 ± 0.00032	1.37662 ± 0.00032	–	–	–
[2], x2 = 0.2	–	–	–	1.38586 ± 0.00032	1.38087 ± 0.00032	1.37584 ± 0.00032	–	–	–
[2], x2 = 0.25	–	–	–	1.38499 ± 0.00032	1.38002 ± 0.00032	1.37503 ± 0.00032	–	–	–
[2], x2 = 0.3	–	–	–	1.38408 ± 0.00032	1.37913 ± 0.00032	1.37417 ± 0.00032	–	–	–
[2], x2 = 0.35	–	–	–	1.38311 ± 0.00032	1.37819 ± 0.00032	1.37326 ± 0.00032	–	–	–
[2], x2 = 0.4	–	–	–	1.38208 ± 0.00032	1.37719 ± 0.00032	1.37229 ± 0.00032	–	–	–
[2], x2 = 0.45	–	–	–	1.38098 ± 0.00032	1.37612 ± 0.00032	1.37125 ± 0.00032	–	–	–
[2], x2 = 0.5	–	–	–	1.3798 ± 0.00032	1.37497 ± 0.00032	1.37013 ± 0.00032	–	–	–
[2], x2 = 0.55	–	–	–	1.37853 ± 0.00032	1.37373 ± 0.00032	1.36892 ± 0.00032	–	–	–
[2], x2 = 0.6	–	–	–	1.37716 ± 0.00031	1.37239 ± 0.00031	1.36762 ± 0.00031	–	–	–
[2], x2 = 0.65	–	–	–	1.37567 ± 0.00031	1.37093 ± 0.00031	1.36621 ± 0.00031	–	–	–
[2], x2 = 0.7	–	–	–	1.37403 ± 0.00031	1.36933 ± 0.00031	1.36466 ± 0.00031	–	–	–
[2], x2 = 0.75	–	–	–	1.37223 ± 0.00031	1.36757 ± 0.00031	1.36295 ± 0.00031	–	–	–
[2], x2 = 0.8	–	–	–	1.37023 ± 0.00031	1.36562 ± 0.00031	1.36106 ± 0.00031	–	–	–
[2], x2 = 0.85	–	–	–	1.36799 ± 0.00031	1.36345 ± 0.00031	1.35896 ± 0.00031	–	–	–
[2], x2 = 0.9	–	–	–	1.36547 ± 0.00031	1.36102 ± 0.00031	1.3566 ± 0.00031	–	–	–
[2], x2 = 0.95	–	–	–	1.36261 ± 0.00031	1.35826 ± 0.00031	1.35396 ± 0.00031	–	–	–
